Reference: patent US20020102688A1, “Methods and products for the synthesis of oligosaccharide structures on glycoproteins, glycolipids, or as free molecules, and for the isolation of cloned genetic sequences that determine these structures” (The Regents of the University of Michigan, priority 1990, published 2002)

Molecular target: T1, Fuc-TIII (Homo sapiens, UniProt P21217)
T1 construct: showing that this insert is essentially full-length; expressed in transfected cells; host or cells: COS-1 cells (monkey kidney), transient DEAE-dextran transfection, 1% Triton X-100 extract
T1 sequence (P21217 1-361): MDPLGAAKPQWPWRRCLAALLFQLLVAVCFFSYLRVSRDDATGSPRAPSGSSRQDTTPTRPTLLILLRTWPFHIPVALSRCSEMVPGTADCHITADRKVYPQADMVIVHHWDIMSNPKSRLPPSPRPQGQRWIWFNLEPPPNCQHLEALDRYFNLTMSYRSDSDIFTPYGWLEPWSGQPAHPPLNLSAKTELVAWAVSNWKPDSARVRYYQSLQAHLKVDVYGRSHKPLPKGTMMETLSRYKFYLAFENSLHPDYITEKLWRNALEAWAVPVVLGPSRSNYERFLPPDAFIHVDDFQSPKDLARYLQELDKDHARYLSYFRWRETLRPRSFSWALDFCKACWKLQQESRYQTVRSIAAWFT
Test: Fucosyltransferase assay, extracts of COS-1 cells expressing the Lewis fucosyltransferase
Format: biochemical
Details: for fucose transfer to acceptor: extracts containing the Lewis blood group fucosyltransferase, same conditions as Fuc-TIV; for Relative Activity (%) with Fuc-TIII: relative product formation rate, N-acetyllactosamine = 100, acceptor 20 mM (2-fucosyllactose 5 mM), GDP-[14C]fucose 3 μM, transfected COS-1 cell extract
Experimental: Fucosyltransferase assays were performed in 50 mM MOPS pH 6.5, 25 MM MnCl2 10 MM L-fucose, 5 mM ATP, […] GDP-[^14C]fucose (specific activity of 600,000 cpm/nmol; 35,000 cpm per assay), 2.5 mM acceptor (e.g. 2′-fucosyllactose, N-acetyllactosamine, lactose or lacto-N-biose I), and up to 10 μl of cell extract, in a final volume of 20 μl. When determining α(1,3)FT specific activities achieved during the sib selection process, and in the analysis of the protein A-fucosyltransferase fusion protein experiments, the amount of added cell extract and incubation times were adjusted to yield (linear) reaction rates reflecting accurate specific activities. Reactions were incubated at 37° C. for 2 or 6 hours, and then terminated by the addition of 20 μl of ethanol, followed by dilution with 500 μl of H2O. The terminated, diluted reactions were then centrifuged at 15,000×g for 5 min. Fifty μl of each reaction supernatant was counted to determine total radioactivity, and 200 μl of each was fractionated by Dowex-1 chromatography. The neutral radiolabelled material eluting from the column was then counted directly as a measure of product formation. Enzyme specific activity is defined as pmol of fucose transferred from GDP-fucose to acceptor per mg cell extract protein per hour. Neutral products were also further analyzed as described below by descending paper chromatography and by HPLC to confirm their identity. Parallel reactions were done in the absence of added acceptor to allow correction for transfer to endogenous acceptor molecules and for substrate and product hydrolysis.
Cell extracts containing 1% Triton X-100 were prepared from transfected COS-1 cells. Fucosyltransferase assays were performed in a total volume of 20 μl, and contained 50 mM sodium cacodylate, pH 6.2, 5 mM ATP, 10 mM fucose, 20 mM MnCl2, 3 μM GDP-^14C-fucose, and 5 μl (30 μg protein) of cell extract. Acceptor substrates were added to a final concentration of 20 mM. Reactions were incubated at 37° C. for 1 hour and terminated by addition of 20 μl ethanol, followed by addition of 600 μl of distilled water. An aliquot of each reaction (50 μl) was subjected to scintillation counting to determine total radioactivity in the reaction. Another aliquot (200 μl) was applied to a column containing 400 μl of Dowex IX2-400, formate form. The flow through fraction, and […] of a subsequent water elution, were collected and pooled, and an aliquot was subjected to scintillation counting to quantitate incorporation of radioactive fucose into neutral product. Descending paper chromatography was used to confirm the structure of the product formed with the acceptor N-acetyllactosamine. The neutral product in the Dowex column eluate was concentrated by lyophilization, resuspended in a small volume of water, and fractionated through Whatman No. 40 in phenol/isopropanol/formic acid/water (85:5:10:100, lower layer). After chromatography (40 hours), the air-dried chromatogram was cut into 1 cm strips and the strips eluted into 2 ml of water. Radioactivity in each eluate was determined by scintillation counting after mixing with 10 ml of scintillation cocktail.
Table 2 presents the relative product formation rates obtained with low molecular weight acceptor substrates using cell extracts containing recombinant human α(1,3)fucosyltransferases expressed in transfected COS-1 cells, as described in the preceding sections. Fucosyltransferase assays were performed as described in detail in Lowe et al, J. Biol. Chem., (1991), 266:17467-17477; Weston et al, J. Biol. Chem. (1992), 267:4152-4160; and Kukowska-Latallo et al, Genes. Devel., (1990), 4:1288-1303. For each enzyme, the same extract was used, with saturating amounts of each acceptor oligosaccharide (20 mM, except for 2′-fucosylactose which was used at 5 mM), and GDP-^14C]fucose was present at 3 μM. Reaction times and enzyme amounts were adjusted to ensure a linear rate of product formation (less than 15% of the GDP-fucose substrate consumed). […]

Compound | fucose transfer to acceptor | Relative Activity (%) with Fuc-TIII
CC(=O)N[C@H]1C(O)O[C@H](CO)[C@@H](O[C@@H]2O[C@H](CO)[C@H](O)[C@H](O)[C@H]2O)[C@@H]1O (stereo partly shown) [N-acetyllactosamine] | 526 pmol/mg/h | 100%
CC(=O)N[C@@H]1[C@@H](O[C@@H]2O[C@H](CO)[C@H](O)[C@H](O)[C@H]2O)[C@H](O)[C@@H](CO)O[C@@H]1O [lacto-N-biose I] | – | 420%
OC[C@H]1O[C@@H](O[C@H]2[C@H](O)[C@@H](O)C(O)O[C@@H]2CO)[C@H](O)[C@@H](O)[C@H]1O (stereo partly shown) [lactose] | – | 145%
CC(=O)NC1C(O)OC(CO)C(OC2OC(CO)C(O)C(OC3(C(=O)O)CC(O)C(NC(C)=O)C(C(O)C(O)CO)O3)C2O)C1O (stereo not drawn) [α(2,3)sialyllactosamine, NeuAcα(2→3)Galβ(1→4)GlcNAc] | 297 pmol/mg/h | 56%
Fucα(1,2)Galβ(1,4)Glc [2-fucosyllactose] | – | 254%
